# Reference: US20200360647A1, “Use Of Inhaled Nitric Oxide For The Improvement Of Right And/Or Left Ventricular Function” (Bellerophon Pulse Technologies LLC, priority 2017, published 2020)
# Several values for one entry are separate records, joined by “and”; a condition that tells them apart may be missing. Identical values can stand only once.
# How the values were obtained:
# Assay type in all cases: in vivo, human
# [1] = system: subjects with PH-COPD; experiment: Six-minute walk distance (6MWD) during chronic iNO therapy, PH-COPD study; conditions: iNO 30 mcg/kg IBW/hr, individual subjects #1-#7
# Source text: (§1) This study is an open label Phase 1 study of iNO therapy in subjects with PH-COPD (PULSE-COPD-007; NCT03135860). The primary outcome of this study is the change in lobar blood volume at total lung capacity with iNO and the change in lobar blood volume with iNO after 4 weeks of treatment with iNO as measured by HRCT.
# (§2) Subjects also had sPAP≥38 mm Hg as measured by echocardiogram, a post-bronchodilatory FEV1/FVC<0.7 and a FEV1<60% predicted. All subjects were at least 40 years old and were current or former smokers with at least 10 pack-years of tobacco cigarette smoking before study entry. All subjects also had been receiving LTOT for at least 3 months for at least 10 hours per day.
# (§3) The PH-COPD subjects received pulsed iNO therapy for 4 weeks for at least 12 hours/day. The iNO was administered utilizing a 4,880 ppm NO cylinder concentration.
# (§4) A further analysis was performed of seven PH-COPD subjects that completed 4 weeks of treatment with iNO at a dose of 30 mcg/kg IBW/hr.
# [2] = system: subjects with PH-IPF on LTOT; experiment: TAPSE (RV function) during chronic pulsed iNO therapy, PH-IPF study
# Source text: (§5) Maintenance and/or improvements in RV function can be assessed by many echocardiographic measurements. One such quantitative approach to assess RV function is the measurement of the TAPSE. The TAPSE estimates RV systolic function by measuring the level of systolic excursion of the lateral tricuspid valve annulus towards the apex. An excellent correlation between the TAPSE and RV ejection fraction as assessed by radionuclide angiography has previously been established and the approach appears reproducible and proven to be a strong predictor of prognosis in heart failure. [Reference: Heart. 2006 April; 92(Suppl 1): i19-i26.]
# The secondary endpoints of Part 2a (acute; placebo vs. iNO 75 mcg/kg IBW/hr) were change in Borg CR10 leg fatigue and dyspnea scale, changes in breathing questionnaire and changes in right ventricular and left ventricular function.
# One patient from Part 2a entered into Part 2b. During Part 2b patient receive iNO utilizing NO cylinder concentration (4,880 ppm) at a dose of 75 mcg/kg IBW/hr during 4 weeks for at least 12 hours/day.
# The 2 patients from Part 3a entered Part 3b. During Part 3b, patients received iNO utilizing NO cylinder concentration (4,880 ppm) at a dose of 30 mcg/kg IBW/hr.
# Subject 1 received pulsed iNO at a dose of 75 mcg/kg IBW/hr for 4 weeks, and Subject 3 received pulsed iNO at a dose of 30 mcg/kg IBW/hr for 4 weeks.
# [3] = system: subjects with PH-IPF on LTOT; experiment: Safety and tolerability of iNO dose, PH-IPF study
# Description: The safety endpoints in this study were: • a. Incidence and severity of treatment emergent adverse events (AEs), including those related to device deficiency; • b. Incidence of MetHb levels>7.0%; • c. New symptoms that may be due to rebound PH associated with a temporal acute withdrawal of investigational study drug (i.e., symptoms occurring within 20 minutes of acute withdrawal and including those associated with investigational medical device malfunction or failure): systemic arterial oxygen desaturation, hypoxemia, bradycardia, tachycardia, systemic hypotension, near-syncope, syncope, ventricular fibrillation, and/or cardiac arrest; • d. New or worsening symptoms of left heart failure or pulmonary edema; and • e. Any decrease in systemic oxygenation measured by oxygen saturation of arterial blood by pulse oximetry (SpO2), i.e., hypoxia or oxygen saturation decrease, deemed by the Investigator to be clinically significant.
# The initial protocol intended that 4 subjects would be enrolled in Part 2. […] It was decided to temporarily stop recruitment. One of the 2 subjects completed 4 weeks of chronic use in Part 2b.
# In the amendment a total of 2 subjects participated in Part 3. The dose in Part 3 was lower than in Part 2 and each subject was titrated to the optimum dose as determined by the investigator. […] The dose was monitored with a RHC in place. […]
# [4] = system: subjects with PH-IPF on LTOT; experiment: sPAP by echocardiogram, acute iNO, PH-IPF study; conditions: iNO 75 mcg/kg IBW/hr, individual patients (Patient 1, Patient 2)
# Source text: This study was an exploratory, three-part, clinical study to assess the effect of pulsed iNO on functional pulmonary imaging parameters in subjects with PH-COPD on LTOT (Part 1) PH-IPF on LTOT (Part 2 and Part 3) (IK-7002-COPD-006; NCT02267655). The objective of this exploratory study was to examine the utility of high resolution computed tomography (HRCT) to measure changes in functional respiratory imaging parameters as a function of short term iNO administration using a pulsed NO delivery device in subjects with PH-IPF (Part 2 and Part 3) on LTOT. The primary endpoint in this exploratory study is the change from baseline in lobar blood volume at total lung capacity (TLC) after dosing with pulsed iNO (Part 1), iNO or Placebo (Part 2a) and after 4 weeks iNO treatment (Part 3b) as measured by HRCT. […]
# (§6) The 2 subjects enrolled in Part 3a each received three different doses of iNO utilizing NO cylinder concentration (4,880 ppm) at a dose of 5 mcg/kg IBW/hr, 10 mcg/kg IBW/hr and 30 mcg/kg IBW/hr, all with LTOT. For each dose, the change in PAP pressure and the change in cardiac output was evaluated by RHC. […]
# During the chronic phase, the vasodilation and the hemodynamics were assessed. […] Both the acute and chronic phases evaluated iNO doses of 30 and 75 mcg/kg IBW/hr.
# [5] = system: subjects with PH-COPD; experiment: sPAP by echocardiogram during chronic iNO therapy, PH-COPD study
# Source text: as §1, §2, §3
# A further analysis was performed of seven PH-COPD subjects that completed 4 weeks of treatment with iNO at a dose of 30 mcg/kg IBW/hr. […]
# [6] = system: subjects with PH-IPF on LTOT; experiment: HRCT blood vessel volume, acute iNO, PH-IPF study (IK-7002-COPD-006); conditions: iNO 75 mcg/kg IBW/hr, individual patients (Patient 1, Patient 2)
# Source text: This study was an exploratory, three-part, clinical study to assess the effect of pulsed iNO on functional pulmonary imaging parameters in subjects with PH-COPD on LTOT (Part 1) PH-IPF on LTOT (Part 2 and Part 3) (IK-7002-COPD-006; NCT02267655). The objective of this exploratory study was to examine the utility of high resolution computed tomography (HRCT) to measure changes in functional respiratory imaging parameters as a function of short term iNO administration using a pulsed NO delivery device in subjects with PH-IPF (Part 2 and Part 3) on LTOT. The primary endpoint in this exploratory study is the change from baseline in lobar blood volume at total lung capacity (TLC) after dosing with pulsed iNO (Part 1), iNO or Placebo (Part 2a) and after 4 weeks iNO treatment (Part 3b) as measured by HRCT.
# This was an exploratory clinical study to evaluated the utility of HRCT to measure the pharmacodynamic effects of short term pulsed administration of iNO using a pulsed NO delivery device in subjects with PH-IPF (Part 2 and Part 3) on LTOT. […]
# as §6
# [7] = system: subjects with PH-COPD; experiment: HRCT blood vessel volume, acute iNO, PH-COPD study (PULSE-COPD-007); conditions: individual subjects #1-#7
# Source text: as §1, §2, §3, §4
# [8] = system: subjects with PH-COPD; experiment: TAPSE (RV function) during chronic pulsed iNO therapy, PH-COPD study; design: TAPSE Increase: unit not given beside the values
# Source text: as §5, §1, §2, §3
# These subjects were diagnosed with PH-COPD and received 4 weeks of treatment with iNO at a dose of 30 mcg/kg IBW/hr. The results verify the increase in TAPSE which correlates to RV function.
# [9] = PH-IPF Subject 1, pulsed iNO 75 mcg/kg IBW/hr for 4 weeks, vs baseline
# [10] = PH-IPF Subject 3, pulsed iNO 30 mcg/kg IBW/hr for 4 weeks, vs baseline
# [11] = PH-IPF, average of Subject 1 (75) and Subject 3 (30 mcg/kg IBW/hr), 4 weeks, vs baseline
# [12] = group value, vs baseline 60.3 mm Hg, p=0.02
# [13] = iNO 30 mcg/kg IBW/hr, 4 weeks vs baseline, individual subjects #1-#7
# [14] = iNO 30 mcg/kg IBW/hr for 4 weeks, average of four subjects, vs baseline
# [15] = iNO 30 mcg/kg IBW/hr for 4 weeks, vs baseline, individual subjects (1, 6, 7, 12)
structure (smiles),measurement,setting,value
"[N]=O [iNO, nitric oxide]","6MWD Change from Baseline, 2 weeks iNO",[1]; 2 weeks vs baseline,+135 meters and +79 meters and +15 meters and +35 meters and +25 meters and +57 meters and +32 meters
same,"6MWD, 2 weeks iNO",[1]; 2 weeks,335 meters and 263 meters and 493 meters and 115 meters and 495 meters and 400 meters and 173 meters
same,"6MWD Change from Baseline, 4 weeks iNO",[1]; 4 weeks vs baseline,+135 meters and +11 meters and +2 meters and −3 meters and +28 meters and +80 meters and +100 meters
same,"6MWD, 4 weeks iNO",[1]; 4 weeks,335 meters and 195 meters and 480 meters and 77 meters and 498 meters and 423 meters and 242 meters
same,TAPSE % Change,[2]; [9],21%
same,TAPSE Increase,[2]; [9],3
same,TAPSE % Change,[2]; [10],12%
same,TAPSE Increase,[2]; [10],4
same,"TAPSE % Change, Average",[2]; [11],15%
same,"TAPSE Increase, Average",[2]; [11],3
same,"TAPSE 4 Week, Average","[2]; PH-IPF, average of Subject 1 (75 mcg/kg IBW/hr) and Subject 3 (30 mcg/kg IBW/hr), 4 weeks, baseline 20",23
same,Safety of dose titration monitored with RHC,"[3]; 2 PH-IPF subjects of Part 3, titrated 5, 10, 30 mcg/kg IBW/hr",could titrate to iNO at a dose of 30 mcg/kg IBW/hr safely
same,PAP after discontinuation of iNO,"[3]; two PH-IPF patients of Part 2, iNO 75 mcg/kg IBW/hr",sudden increase in PAP after discontinuation
same,Acute Change in sPAP (%),[4],−9.3% and −9.7%
same,sPAP 4 weeks after iNO therapy was discontinued,[5]; group value (FIG. 6),58.0 mm Hg
same,sPAP drop after 4 weeks of iNO therapy,[5]; [12],12.0 mm Hg
same,sPAP drop after 4 weeks of iNO therapy (%),[5]; [12],19.9%
same,"sPAP, 4 weeks iNO","[5]; iNO 30 mcg/kg IBW/hr for 4 weeks, individual subjects #1-#7",69 mm Hg and 37 mm Hg and 40 mm Hg and 74 mm Hg and 30 mm Hg and 34 mm Hg and 54 mm Hg
same,Change sPAP (mm Hg),[5]; [13],−25 mm Hg and −10 mm Hg (2×) and −15 mm Hg and −4 mm Hg and −12 mm Hg and −8 mm Hg
same,sPAP % Change,[5]; [13],−27% (2×) and −21% and −5% and −25% and −26% and −13%
same,Acute change in Blood Vessel Volume %,[6],14.0 ± 4.7% and 34.2 ± 7.6%
same,Acute change in Blood Vessel Volume %,[7],6.2 ± 1.6% and 3.3 ± 2.1% and 6.6 ± 4.5% and 9.7 ± 3.5% and −1.0 ± 4.0% and 2.7 ± 0.4%
same,TAPSE after iNO therapy was discontinued,"[8]; group value, N=5 (FIG. 7)",19.0
same,"TAPSE 4 Week, Average","[8]; iNO 30 mcg/kg IBW/hr for 4 weeks, average of four subjects, baseline 16",20
same,"TAPSE % Change, Average",[8]; [14],25%
same,"TAPSE Increase, Average",[8]; [14],4
same,TAPSE 4 Week,"[8]; iNO 30 mcg/kg IBW/hr for 4 weeks, individual subjects (1, 6, 7, 12)",14 and 18 (2×) and 28
same,TAPSE % Change,[8]; [15],0% and 67% and 22% and 13%
same,TAPSE Increase,[8]; [15],0 and 7 and 5 and 2
